Source: patent US9688857B2, “Fluorescent probe” (THE UNIVERSITY OF TOKYO, priority 2011, dated 2017)
Values belong to the compound of their own block, whether it stands above or below them.

What was measured:
[1] = Optical characteristics, Table 3; assay type: physicochemical; settings: for λmax, fl: 0.1 M phosphate buffer (pH 9) containing 1% DMSO; for Φfl: 0.1 M phosphate buffer (pH 9), 1% DMSO, standard 2-Me TokyoMagenta (0.42); for λmax, abs: 0.1 M phosphate buffer containing 1% DMSO
Procedure: The measurement was performed in a 0.1 M phosphate buffer (pH 9) containing 1% DMSO. pKa was obtained from the absorbance measured in a phosphate buffer (pH 9) by single-phase or two-phase curve fitting. The quantum yield was obtained by using the quantum yield of 2-Me TokyoMagenta (0.42) in a 0.1 M phosphate buffer (pH 9) as the standard.

[2] = target: T1, β-galactosidase (Escherichia coli, UniProt P00722); experiment: Hydrolysis reaction by β-galactosidase monitored by fluorescence intensity over time; assay type: biochemical; settings: 1 μM probe, 37° C., 0.1 M sodium phosphate buffer (pH 7.4), 0.1% DMSO, one unit β-galactosidase
From the text: As a control, 2-Me-4-OMe TokyoGreen βgal was used, which had been already widely used as a fluorescent probe for β-galactosidase measurement.
Advance of the hydrolysis reaction of 2-Me TokyoMagenta βgal by β-galactosidase was monitored by periodically measuring fluorescence intensity. As a control, 2-Me-4-OMe TokyoGreen βgal (9-(4′-methoxy-2′-methylphenyl)-6-(β-D-galactopyranosyloxy)-xanthen-3-one), which had been already widely used as a fluorescent probe for β-galactosidase measurement, was used. The reaction was performed at 37° C. in a 0.1 M sodium phosphate buffer (pH 7.4) containing 1 μM 2-Me TokyoMagenta βgal or 2-Me-4-OMe TokyoGreen βgal and 0.1% dimethyl sulfoxide. One unit (1.3 μg) of β-galactosidase was added 40 seconds afterward.
Target sequence in this assay (P00722 2-1024): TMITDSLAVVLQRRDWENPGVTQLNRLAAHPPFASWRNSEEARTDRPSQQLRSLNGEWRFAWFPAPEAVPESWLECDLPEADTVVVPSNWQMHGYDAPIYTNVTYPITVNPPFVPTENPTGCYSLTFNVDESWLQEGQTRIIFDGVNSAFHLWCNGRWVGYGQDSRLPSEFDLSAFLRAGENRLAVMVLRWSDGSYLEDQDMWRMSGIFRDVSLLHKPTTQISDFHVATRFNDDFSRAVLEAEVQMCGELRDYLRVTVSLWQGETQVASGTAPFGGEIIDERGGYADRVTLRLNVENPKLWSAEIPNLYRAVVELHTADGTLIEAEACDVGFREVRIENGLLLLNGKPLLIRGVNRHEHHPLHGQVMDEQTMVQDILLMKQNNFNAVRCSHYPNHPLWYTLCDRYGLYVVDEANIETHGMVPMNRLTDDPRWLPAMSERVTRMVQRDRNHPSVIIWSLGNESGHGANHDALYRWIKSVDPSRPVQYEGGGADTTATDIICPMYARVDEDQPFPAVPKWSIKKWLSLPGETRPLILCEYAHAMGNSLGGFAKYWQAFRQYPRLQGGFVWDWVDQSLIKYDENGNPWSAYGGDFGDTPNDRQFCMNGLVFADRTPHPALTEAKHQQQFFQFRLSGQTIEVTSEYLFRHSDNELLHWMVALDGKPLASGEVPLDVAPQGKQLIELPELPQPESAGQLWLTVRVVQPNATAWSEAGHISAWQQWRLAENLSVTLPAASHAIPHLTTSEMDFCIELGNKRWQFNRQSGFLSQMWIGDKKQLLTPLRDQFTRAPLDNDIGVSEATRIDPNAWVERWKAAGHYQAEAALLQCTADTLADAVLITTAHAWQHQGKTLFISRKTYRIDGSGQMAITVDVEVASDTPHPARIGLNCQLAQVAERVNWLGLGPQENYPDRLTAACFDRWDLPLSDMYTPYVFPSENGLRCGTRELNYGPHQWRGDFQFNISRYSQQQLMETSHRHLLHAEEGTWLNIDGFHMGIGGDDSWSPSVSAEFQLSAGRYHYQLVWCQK

[3] = Absorption and fluorescence profiles at various pH values (Example 2); assay type: physicochemical; settings: for maximal absorption wavelength: 1 μM in 0.1 M phosphate buffer, 1% DMSO
Procedure: The measurement was performed with changing pH. In this specification, Me means methyl group. […] The measurement was performed by using a 1 μM solution of 2-Me TokyoMagenta dissolved in a 0.1 M phosphate buffer containing 1% dimethyl sulfoxide (DMSO).
Absorption and fluorescence profiles of 2-Me TokyoMagenta obtained in the step (g) mentioned above were measured at various pH values. […] It is considered that 2-Me TokyoMagenta exists in an equilibrated state of the non-dissociated form (neutral form) and the dissociated form (anion form) mentioned below depending on pH.

[4] = Comparison of absorption wavelengths at pH 3 and 9 in sodium phosphate buffer (Table 1); assay type: physicochemical; set-up: λmax: unit not given beside the values; settings: for λmax: sodium phosphate buffer
Procedure: The results of comparison of the absorption wavelengths of 2-Me TokyoMagenta and 2-Me TokyoGreen (9-(2′-methylphenyl)-xanthen-3-one) having oxygen atom at the 10-position of the xanthene ring are shown in FIG. 2 and Table 1. The measurement was performed at pH 3 and 9 in a sodium phosphate buffer.

[5] = Optical characteristics, Table 2; assay type: physicochemical; settings: phosphate buffer (pH 9)
Procedure: The measurement was performed at pH 9.

[6] = physchem; assay type: physicochemical
Procedure: In the table, the items attached with the letter a were measured in a phosphate buffer (pH 9), and the item attached with the letter b was measured in a 0.1 M phosphate buffer containing 1% DMSO.
The measurement was performed in a 0.1 M phosphate buffer (pH 9) containing 1% DMSO. pKa was obtained from the absorbance measured in a phosphate buffer (pH 9) by single-phase or two-phase curve fitting.

[7] = Fluorescence profiles at various pH values, excitation 471 nm (Example 6); assay type: physicochemical; settings: shift of pH from the acidic side to the alkaline side
Procedure: The measurement was performed with changing pH (excitation wavelength, 471 nm) by using a 1 μM solution of 2-Me TokyoMagenta dissolved in a 0.1 M phosphate buffer containing 1% dimethyl sulfoxide (DMSO).
Absorption and fluorescence profiles of 2-Me TokyoMagenta obtained in the step (g) mentioned above were measured at various pH values (excitation wavelength, 471 nm). It was confirmed that, with the shift of pH from the acidic side to the alkaline side, fluorescence intensity decreased around 590 nm, and fluorescence intensity increased around 560 nm.

[8] = target: T1, β-galactosidase; experiment: Absorption spectra before and after treatment with β-galactosidase; assay type: biochemical; settings: 0.1 M sodium phosphate buffer (pH 7.0), 0.1% DMSO
Procedure: The characteristics of 2-Me TokyoMagenta βgal, which was designed as a fluorescent probe for β-galactosidase measurement, as an enzyme substrate and a fluorescent probe were evaluated. There are shown absorption spectra (FIG. 3, upper left graph) and fluorescence spectra (FIG. 3, upper right graph (excitation wavelength, 582 nm) and FIG. 3, lower left graph (excitation wavelength, 448 nm)) of 2-Me TokyoMagenta βgal measured before and after a treatment with β-galactosidase (6 units) in a 0.1 M sodium phosphate buffer (pH 7.0) containing 0.1% dimethyl sulfoxide. The λmax values measured before and after the reaction were 448 nm (before the reaction), and 582 nm (after the reaction), respectively.
Target sequence in this assay (P00722 2-1024): as above

[9] = target: T1, β-galactosidase; experiment: Measurement of intracellular β-galactosidase in HEK293 cells (lacZ(+) or lacZ(−)); assay type: cell-based; set-up: expressed in transfected cells; host or cells: HEK293 lacZ(+); settings: 10 μM, 37° C., 30 minutes, excitation 580 nm, detection 600 to 620 nm
Procedure: The bars shown in the photographs indicate 30 μm.
2-Me TokyoMagenta βgal was introduced into cells, and it was confirmed that it functioned as a fluorescent probe for β-galactosidase measurement. The HEK293 cells (lacZ(+) or lacZ(−)) were incubated with 10 μM 2-Me TokyoMagenta βgal at 37° C. for 30 minutes in the Dulbecco's modified Eagle medium (DMEM) containing 0.1% dimethyl sulfoxide, and fluorescence spectrum was measured with an excitation wavelength of 580 nm and detection wavelength of 600 to 620 nm.
Target sequence in this assay (P00722 whole entry): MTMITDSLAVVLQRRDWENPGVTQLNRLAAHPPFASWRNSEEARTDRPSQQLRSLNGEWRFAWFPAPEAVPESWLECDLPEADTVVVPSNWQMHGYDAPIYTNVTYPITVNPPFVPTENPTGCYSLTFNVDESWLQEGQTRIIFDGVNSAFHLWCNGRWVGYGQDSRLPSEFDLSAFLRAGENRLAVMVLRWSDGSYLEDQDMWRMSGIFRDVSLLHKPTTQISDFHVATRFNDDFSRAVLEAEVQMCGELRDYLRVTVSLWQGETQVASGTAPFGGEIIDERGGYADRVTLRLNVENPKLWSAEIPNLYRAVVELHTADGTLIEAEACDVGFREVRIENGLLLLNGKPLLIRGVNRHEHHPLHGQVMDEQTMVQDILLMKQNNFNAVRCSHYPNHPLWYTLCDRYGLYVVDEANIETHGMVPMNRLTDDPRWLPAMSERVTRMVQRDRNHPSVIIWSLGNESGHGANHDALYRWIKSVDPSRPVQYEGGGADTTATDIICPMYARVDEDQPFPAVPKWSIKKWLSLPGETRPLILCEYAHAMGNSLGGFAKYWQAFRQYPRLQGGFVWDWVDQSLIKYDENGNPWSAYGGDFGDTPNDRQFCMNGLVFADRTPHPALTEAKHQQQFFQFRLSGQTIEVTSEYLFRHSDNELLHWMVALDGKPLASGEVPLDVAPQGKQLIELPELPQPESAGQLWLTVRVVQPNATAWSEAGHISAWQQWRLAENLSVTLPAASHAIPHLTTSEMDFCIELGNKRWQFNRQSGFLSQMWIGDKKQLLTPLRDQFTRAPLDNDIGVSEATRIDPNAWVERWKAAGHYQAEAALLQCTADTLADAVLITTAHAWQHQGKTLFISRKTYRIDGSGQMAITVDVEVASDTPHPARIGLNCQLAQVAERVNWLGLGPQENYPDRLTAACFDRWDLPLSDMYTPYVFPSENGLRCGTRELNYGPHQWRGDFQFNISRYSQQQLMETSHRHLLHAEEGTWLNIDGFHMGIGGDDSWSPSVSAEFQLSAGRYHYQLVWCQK

SMILES: COc1ccc(-c2c3ccc(=O)cc-3oc3cc(O[C@@H]4O[C@H](CO)[C@H](O)[C@H](O)[C@H]4O)ccc23)c(C)c1 [2-Me-4-OMe TokyoGreen βgal, 9-(4′-methoxy-2′-methylphenyl)-6-(β-D-galactopyranosyloxy)-xanthen-3-one, reference compound]
fluorescence response on hydrolysis by β-galactosidase [2]: fluorescence was generated by cancellation of PET

SMILES: Cc1ccccc1C1=C2C=CC(=O)C=C2[Si](C)(C)c2cc(O)ccc21 [2-Me TokyoMagenta]
maximal absorption wavelength ([3]; acidic side of pH): around 471 nm
maximal absorption wavelength ([3]; alkaline side of pH): around 582 nm
Φfl ([3]; anion form): 0.42
ε ([3]; anion form): 110000
Φfl ([3]; neutral form): 0.10
ε ([3]; neutral form): 29000
fluorescence emission with excitation light of 550 nm ([3]; shift of pH from the acidic side to the alkaline side): significantly increased
λmax ([4]; Anion form (pH 9)): 582
λmax ([4]; Neutral form (pH 3)): 471
absorption wavelength change with change of pH ([4]; compared with 2-Me TokyoGreen, pH 3 and 9): larger absorption wavelength change
Φfl [5]: 0.42
λabs [5]: 582 nm
λfl [5]: 598 nm
pKa [6]: 6.8
λmax, fl [1]: 598 nm
Φfl [1]: 0.42
λmax, abs ([1]; pH 3): 472 nm
λmax, abs ([1]; pH 9): 582 nm
fluorescence intensity around 560 nm [7]: increased
fluorescence intensity around 590 nm [7]: decreased

SMILES: Cc1ccccc1C1=C2C=CC(=O)C=C2[Si](C)(C)c2cc(O[C@@H]3O[C@H](CO)[C@H](O)[C@H](O)[C@H]3O)ccc21 [2-Me TokyoMagenta βgal]
λmax after the reaction ([8]; after β-galactosidase (6 units)): 582 nm
λmax before the reaction ([8]; before β-galactosidase (6 units)): 448 nm
fluorescence response on hydrolysis by β-galactosidase [2]: increase of fluorescence intensity due to red shift
fluorescence in cells ([9]; HEK293 lacZ(+) cells): fluorescence emitted by the fluorescent probe hydrolyzed by β-galactosidase was confirmed
fluorescence in cells ([9]; HEK293 lacZ(−) cells): fluorescence was not observed

SMILES: CC[Si]1(CC)C2=CC(=O)C=CC2=C(c2ccccc2C)c2ccc(O)cc21 [2-Me DiEtTM]
Φfl [5]: 0.48
λabs [5]: 582 nm
λfl [5]: 601 nm

SMILES: Cc1ccccc1-c1c2ccc(=O)cc-2oc2ccccc12 [2-Me TokyoGreen, 9-(2′-methylphenyl)-xanthen-3-one, reference compound]
λmax ([4]; Anion form (pH 9)): 492
λmax ([4]; Neutral form (pH 3)): 439

SMILES: C[Si]1(C)C2=CC(=O)C=CC2=C(c2ccccc2C(=O)O)c2ccc(O)cc21 [2-COOH TM]
λmax, fl [1]: 598 nm
Φfl [1]: 0.38
λmax, abs ([1]; pH 9): 582 nm

More lines, now with the values ahead:

λmax, fl [1]: 607 nm
Φfl [1]: 0.48
λmax, abs ([1]; pH 9): 591 nm
SMILES: C[Si]1(C)C2=C(Cl)C(=O)C=CC2=C(c2ccccc2C(=O)O)c2ccc(O)c(Cl)c21 [2-COOH DCTM]

λmax, fl [1]: 607 nm
Φfl [1]: 0.48
λmax, abs ([1]; pH 3): 477 nm
λmax, abs ([1]; pH 9): 595 nm
SMILES: Cc1ccccc1C1=C2C=CC(=O)C(Cl)=C2[Si](C)(C)c2c1ccc(O)c2Cl [2-Me DCTM]

λmax, fl [1]: 598 nm
Φfl [1]: 0.57
λmax, abs ([1]; pH 3): 465 nm
λmax, abs ([1]; pH 9): 583 nm
SMILES: Cc1ccccc1C1=C2C=CC(=O)C(F)=C2[Si](C)(C)c2c1ccc(O)c2F [2-Me DFTM]

λmax, fl [1]: 596 nm
Φfl [1]: 0.54
λmax, abs ([1]; pH 9): 581 nm
SMILES: C[Si]1(C)C2=C(F)C(=O)C=CC2=C(c2ccccc2C(=O)O)c2ccc(O)c(F)c21 [2-COOH DFTM]
